What was measured:
[1] = Preclinical PK study: plasma VEN and ODV after a single oral dose of ER formulations, LC-MRM-MS/MS, noncompartmental analysis; type: in vivo, New Zealand White rabbits; conditions: throughout the sampling period (36 h); after oral optimized ER tablet and RLD; above LOQ
Protocol: Four pairs (male/female) of healthy rabbits, each weighing 3–4 kg, were provided by Government Rabbit Farm, Wussan (Pattan), Kashmir. The rabbits were divided into a reference group and a test group. […] The resulting plasma samples were frozen at − 40 °C until further analysis.
The PK evaluation summarized in Table 11 was carried out by way of noncompartmental analysis (NCA) using WinNonlin 8.1 and the additional statistical computations were performed in SAS 9.4. […] The statistical assurance of bioequivalent similarity given in Table 12 was computed using analysis of variance on log-transformed PK parameters (Cmax, AUClast, and AUCINF_obs) of reference and test product.

noradrenaline reuptake = tested on: noradrenaline reuptake; design: method as in doi:10.2165/00023210-200014060-00006; conditions: cited from earlier work
dopamine reuptake = tested on: dopamine reuptake; design: method as in doi:10.2165/00023210-200014060-00006; conditions: cited from earlier work
serotonin reuptake = conditions: cited from earlier work

SMILES | plasma concentrations [1] [ng/mL] | inhibition of noradrenaline reuptake (noradrenaline reuptake) | inhibition of dopamine reuptake (dopamine reuptake) | inhibition of serotonin reuptake (serotonin reuptake)
COc1ccc(C(CN(C)C)C2(O)CCCCC2)cc1 (racemic) [VEN, (RS) 1-[2-(dimethylamino)-1-(4-methoxyphenyl)ethyl]cyclohexanol] | > 0.5 | potent inhibitors | weakly inhibit | 
CN(C)CC(c1ccc(O)cc1)C1(O)CCCCC1 (stereo not shown) [ODV, O-desmethylvenlafaxine] | > 0.5 | potent inhibitors | weakly inhibit | potent inhibitors
